One may read the Ki as a dissociation constant, usually derived from enzyme kinetics or from competition with a known ligand.

In publication PMC2898832, “Active site plasticity revealed from the structure of the enterobacterial N-ribohydrolase RihA bound to a competitive inhibitor” (2010) one finds Ki data, which are given here for one compound.

The experiment concerns the target T1, RihA (Escherichia coli, UniProt P41409).
T1 construct: full-length rihA (936 bp) from E. coli K12 derivative DH5α; N-terminal His-tag removed with thrombin; tetramer
In words: X-ray co-crystal structure at […] Å; KI from competitive inhibition of uridine hydrolysis by purified enzyme. It counts as biochemical.

T1 sequence (P41409 whole entry): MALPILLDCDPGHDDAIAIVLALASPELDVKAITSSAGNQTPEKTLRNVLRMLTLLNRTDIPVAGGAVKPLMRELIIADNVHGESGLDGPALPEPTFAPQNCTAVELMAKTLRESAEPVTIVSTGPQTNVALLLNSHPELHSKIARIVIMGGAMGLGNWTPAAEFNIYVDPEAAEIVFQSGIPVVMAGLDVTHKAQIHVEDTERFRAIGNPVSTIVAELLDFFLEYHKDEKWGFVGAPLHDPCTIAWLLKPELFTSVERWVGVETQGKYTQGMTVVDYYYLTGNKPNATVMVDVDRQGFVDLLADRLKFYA

Compound `Nc1ccc([C@@H]2N[C@H](CO)[C@@H](O)[C@H]2O)cc1N` [DAPIR] registered an inhibitory constant (Ki) of 85 ± 7 µM.
